Test results: ChEMBL document CHEMBL1130663, “N-substituted octahydro-4a-(3-hydroxyphenyl)-10a-methyl-benzo[g]isoquinolines are opioid receptor pure antagonists” (Bioorg Med Chem Lett, 1998)

Tests used:
Mu-type opioid receptor [1] = molecular target: T1, Mu-type opioid receptor (Cavia porcellus, UniProt P97266); test: Compound was tested for the inhibition of [35S]GTP-gamma-S, binding in Guinea pig Caudate stimulated by the opioid receptor agonist Mu-DAMGO; type: functional
[2] = molecular target: Delta-type opioid receptor (Rattus norvegicus, UniProt P33533); test: Binding affinity was determined as ability to displace [3H]DADLE radioligand from Opioid receptor delta 1
Chain of Delta-type opioid receptor (P33533 whole entry): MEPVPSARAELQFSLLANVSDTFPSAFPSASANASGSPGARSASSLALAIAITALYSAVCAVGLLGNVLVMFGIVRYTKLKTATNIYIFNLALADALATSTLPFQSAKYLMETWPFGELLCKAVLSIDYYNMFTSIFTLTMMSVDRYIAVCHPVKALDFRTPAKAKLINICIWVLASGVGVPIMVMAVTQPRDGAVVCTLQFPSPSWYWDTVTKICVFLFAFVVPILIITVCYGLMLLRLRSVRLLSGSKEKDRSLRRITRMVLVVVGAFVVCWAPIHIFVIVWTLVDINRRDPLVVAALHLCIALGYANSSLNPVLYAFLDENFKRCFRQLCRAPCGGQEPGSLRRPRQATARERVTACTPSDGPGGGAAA

[3] = molecular target: T2, Kappa-type opioid receptor (Cavia porcellus, UniProt P41144); test: Compound was tested for the inhibition of [35S]GTP-gamma-S, binding Opioid receptor kappa 1; type: functional
T2 sequence (P41144 whole entry): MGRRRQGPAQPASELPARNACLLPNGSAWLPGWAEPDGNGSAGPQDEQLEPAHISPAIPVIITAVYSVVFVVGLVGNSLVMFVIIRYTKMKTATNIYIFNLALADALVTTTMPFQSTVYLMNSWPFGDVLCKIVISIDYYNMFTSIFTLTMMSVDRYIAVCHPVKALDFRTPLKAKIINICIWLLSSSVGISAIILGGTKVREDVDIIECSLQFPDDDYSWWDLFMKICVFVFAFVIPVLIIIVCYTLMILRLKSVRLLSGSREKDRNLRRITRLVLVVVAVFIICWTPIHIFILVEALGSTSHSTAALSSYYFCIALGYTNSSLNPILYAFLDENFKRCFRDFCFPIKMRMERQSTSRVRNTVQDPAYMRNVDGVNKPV

Mu-type opioid receptor [4] = molecular target: Mu-type opioid receptor (Rattus norvegicus, UniProt P33535); test: Binding affinity was determined as ability to displace [3H]DAMGO radioligand from Mu opioid receptor
Chain of Mu-type opioid receptor (Rattus norvegicus, UniProt P33535) (P33535 whole entry): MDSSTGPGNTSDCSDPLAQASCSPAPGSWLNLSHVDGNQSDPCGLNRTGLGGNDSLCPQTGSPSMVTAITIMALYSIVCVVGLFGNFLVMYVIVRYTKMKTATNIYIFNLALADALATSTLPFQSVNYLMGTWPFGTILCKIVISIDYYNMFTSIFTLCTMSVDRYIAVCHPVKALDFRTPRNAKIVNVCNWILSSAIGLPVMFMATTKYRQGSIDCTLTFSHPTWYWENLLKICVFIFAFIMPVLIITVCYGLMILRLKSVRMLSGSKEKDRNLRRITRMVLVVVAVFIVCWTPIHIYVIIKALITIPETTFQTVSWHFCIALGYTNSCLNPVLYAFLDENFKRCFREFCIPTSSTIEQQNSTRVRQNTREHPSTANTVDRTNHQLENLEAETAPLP

[5] = molecular target: T2, Kappa-type opioid receptor; test: Binding affinity was determined as ability to displace [3H]-U-69, radioligand from Opioid receptor kappa 1
Mu-type opioid receptor [6] = molecular target: T1, Mu-type opioid receptor; test: Binding affinity was determined against Mu opioid receptor using [3H]-Naltrexone as radioligand
[7] = molecular target: T2, Kappa-type opioid receptor; test: Compound was tested for the inhibition of [35S]GTP-gamma-S, binding to Opioid receptor kappa 1; type: functional

T1 sequence (P97266 whole entry): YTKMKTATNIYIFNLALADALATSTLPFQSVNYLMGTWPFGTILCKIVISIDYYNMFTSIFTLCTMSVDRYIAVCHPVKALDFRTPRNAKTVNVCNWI

SMILES	Ki (Mu-type opioid receptor [1])	Ki [2]	Ki [3]	Ki (Mu-type opioid receptor [4])	Ki [5]	Ki (Mu-type opioid receptor [6])	Ki [7]
C[C@]12Cc3ccccc3C[C@@]1(c1cccc(O)c1)CCN(CCc1ccccc1)C2	10 nM	1270 nM	6.61 nM	11.2 nM	9.8 nM		
C[C@H]1CN(C)CC[C@@]1(C)c1cccc(O)c1						80 nM	
CN1CC[C@]2(c3cccc(O)c3)Cc3ccccc3C[C@]2(C)C1	119 nM	> 5710 nM		297 nM	166 nM		52.6 nM
